# From publication PMC5218480 (PLoS ONE, 2017)
# Test system: MV-4-11 cells
# Assay: Gene expression microarray analysis (Affymetrix PrimeView) and GSEA
# Type: cell-based, human
# Set-up: RFU PODN (11730768_x_at) / Fold change /veh PODN (11730768_x_at) / RFU LINC00158 (11744669_a_at) / Fold change /veh LINC00158 (11744669_a_at) / RFU DUSP10 (11751237_a_at) / Fold change /veh DUSP10 (11751237_a_at) / RFU ID3 (11757404_x_at) / Fold change /veh ID3 (11757404_x_at) / RFU PLEKHG5 (11737974_s_at) / Fold change /veh PLEKHG5 (11737974_s_at) / RFU LRRC4B (11730491_at) / Fold change /veh LRRC4B (11730491_at) / RFU GIMAP4 (11747438_a_at) / Fold change /veh GIMAP4 (11747438_a_at) / RFU KRT8 (11758183_x_at) / Fold change /veh KRT8 (11758183_x_at) / RFU CNN1 (11734310_a_at) / Fold change /veh CNN1 (11734310_a_at) / RFU VPS37D (11726825_at) / Fold change /veh VPS37D (11726825_at) / RFU C10orf10 (11716522_x_at) / Fold change /veh C10orf10 (11716522_x_at) / RFU KIR2DL2 /// KIR2DL4 /// KIR2DL5A /// KIR2DL5B /// KIR2DS1 /// KIR2DS2 /// KIR2DS3 /// KIR2DS4 /// KIR3DL3 /// KIR3DL3 /// KIR3DS1 (11738374_at) / Fold change /veh KIR2DL2 /// KIR2DL4 /// KIR2DL5A /// KIR2DL5B /// KIR2DS1 /// KIR2DS2 /// KIR2DS3 /// KIR2DS4 /// KIR3DL3 /// KIR3DL3 /// KIR3DS1 (11738374_at) / RFU C1QL1 (11718748_at) / Fold change /veh C1QL1 (11718748_at) / RFU TMPRSS4 (11747572_a_at) / Fold change /veh TMPRSS4 (11747572_a_at) / RFU HAMP (11756126_x_at) / Fold change /veh HAMP (11756126_x_at) / RFU RNFT2 (11725882_a_at) / Fold change /veh RNFT2 (11725882_a_at) / RFU NR4A2 (11747474_a_at) / Fold change /veh NR4A2 (11747474_a_at) / RFU ABCC12 (11746883_a_at) / Fold change /veh ABCC12 (11746883_a_at) / RFU TMEM136 (11760407_x_at) / Fold change /veh TMEM136 (11760407_x_at) / RFU CLDN22 /// WWC2 (11732394_at) / Fold change /veh CLDN22 /// WWC2 (11732394_at) / RFU HLA-DPB1 (11760878_x_at) / Fold change /veh HLA-DPB1 (11760878_x_at) / RFU SPINT1 (11716480_a_at) / Fold change /veh SPINT1 (11716480_a_at) / RFU GAP43 (11754022_s_at) / Fold change /veh GAP43 (11754022_s_at) / RFU A4GNT (11735810_at) / Fold change /veh A4GNT (11735810_at) / RFU PRB3 (11715151_x_at) / Fold change /veh PRB3 (11715151_x_at) / RFU TUBB4B (11761932_at) / Fold change /veh TUBB4B (11761932_at) / RFU CAPN14 (11732068_a_at) / Fold change /veh CAPN14 (11732068_a_at) / RFU TMCC2 (11721928_a_at) / Fold change /veh TMCC2 (11721928_a_at) / RFU IRGQ (11745062_a_at) / Fold change /veh IRGQ (11745062_a_at) / RFU FAM174B (11720279_a_at) / Fold change /veh FAM174B (11720279_a_at) / RFU TMPRSS4 (11748680_a_at) / Fold change /veh TMPRSS4 (11748680_a_at) / RFU FAM212B (11763350_a_at) / Fold change /veh FAM212B (11763350_a_at) / RFU PLEKHG5 (11743358_a_at) / Fold change /veh PLEKHG5 (11743358_a_at) / RFU ZSCAN30 (11745921_a_at) / Fold change /veh ZSCAN30 (11745921_a_at) / RFU CMKLR1 (11741424_a_at) / Fold change /veh CMKLR1 (11741424_a_at) / RFU LOC101060620 /// MAPK8IP1 (11723275_at) / Fold change /veh LOC101060620 /// MAPK8IP1 (11723275_at) / RFU SPTSSB (11747773_x_at) / Fold change /veh SPTSSB (11747773_x_at) / RFU PRSS12 (11739890_at) / Fold change /veh PRSS12 (11739890_at) / RFU BIN1 (11741810_x_at) / Fold change /veh BIN1 (11741810_x_at) / RFU WNT11 (11732464_a_at) / Fold change /veh WNT11 (11732464_a_at) / RFU C10orf10 (11716521_a_at) / Fold change /veh C10orf10 (11716521_a_at) / RFU C5orf56 (11738089_at) / Fold change /veh C5orf56 (11738089_at) / RFU CYB561 (11721691_x_at) / Fold change /veh CYB561 (11721691_x_at) / RFU ANKRD19P (11752326_a_at) / Fold change /veh ANKRD19P (11752326_a_at) / RFU OR2T12 /// OR2T33 /// OR2T8 (11738714_s_at) / Fold change /veh OR2T12 /// OR2T33 /// OR2T8 (11738714_s_at) / RFU VCAN (11748164_a_at) / Fold change /veh VCAN (11748164_a_at) / RFU JSRP1 (11732532_at) / Fold change /veh JSRP1 (11732532_at) / RFU KRTAP10-11 (11738290_x_at) / Fold change /veh KRTAP10-11 (11738290_x_at) / RFU MYO3A (11730013_a_at) / Fold change /veh MYO3A (11730013_a_at) / RFU EBF3 (11725865_a_at) / Fold change /veh EBF3 (11725865_a_at) / RFU CAMK2N1 (11719241_x_at) / Fold change /veh CAMK2N1 (11719241_x_at) / RFU C5orf56 (11738088_a_at) / Fold change /veh C5orf56 (11738088_a_at) / RFU OLFML3 (11715873_a_at) / Fold change /veh OLFML3 (11715873_a_at) / RFU LOC100653217 /// NTM (11731650_a_at) / Fold change /veh LOC100653217 /// NTM (11731650_a_at) / RFU MAPK11 (11762145_a_at) / Fold change /veh MAPK11 (11762145_a_at) / RFU FIZ1 (11724087_x_at) / Fold change /veh FIZ1 (11724087_x_at) / RFU OASL (11726364_x_at) / Fold change /veh OASL (11726364_x_at) / RFU SOX15 (11748057_x_at) / Fold change /veh SOX15 (11748057_x_at) / RFU CD79A (11719716_a_at) / Fold change /veh CD79A (11719716_a_at) / RFU HIST1H1D (11736915_at) / Fold change /veh HIST1H1D (11736915_at) / RFU CASKIN2 (11723855_a_at) / Fold change /veh CASKIN2 (11723855_a_at) / RFU LOC730098 (11760151_x_at) / Fold change /veh LOC730098 (11760151_x_at) / RFU OR4N2 (11742367_at) / Fold change /veh OR4N2 (11742367_at) / RFU PRRT2 (11749266_a_at) / Fold change /veh PRRT2 (11749266_a_at) / RFU SNX32 (11753110_a_at) / Fold change /veh SNX32 (11753110_a_at) / RFU CDHR5 (11726645_a_at) / Fold change /veh CDHR5 (11726645_a_at) / RFU RCAN1 (11760418_a_at) / Fold change /veh RCAN1 (11760418_a_at) / RFU FAM167A (11723789_a_at) / Fold change /veh FAM167A (11723789_a_at) / RFU FAM26E (11764081_at) / Fold change /veh FAM26E (11764081_at) / RFU ISYNA1 (11749810_s_at) / Fold change /veh ISYNA1 (11749810_s_at) / RFU ACY1 (11761880_at) / Fold change /veh ACY1 (11761880_at) / RFU 11764098_at / Fold change /veh 11764098_at / RFU SAMD14 (11745864_x_at) / Fold change /veh SAMD14 (11745864_x_at) / RFU NPB (11741838_a_at) / Fold change /veh NPB (11741838_a_at) / RFU TMPRSS6 (11731388_a_at) / Fold change /veh TMPRSS6 (11731388_a_at) / RFU KRTAP10-2 (11738614_at) / Fold change /veh KRTAP10-2 (11738614_at) / RFU ARHGAP8 /// PRR5-ARHGAP8 (11727945_x_at) / Fold change /veh ARHGAP8 /// PRR5-ARHGAP8 (11727945_x_at) / RFU KRTAP5-7 /// NADSYN1 (11734609_at) / Fold change /veh KRTAP5-7 /// NADSYN1 (11734609_at) / RFU RASL12 (11751679_a_at) / Fold change /veh RASL12 (11751679_a_at) / RFU CDKN2B (11736163_a_at) / Fold change /veh CDKN2B (11736163_a_at) / RFU PRF1 (11729649_at) / Fold change /veh PRF1 (11729649_at) / RFU, ZNF638 /// ZNF638-IT1 / Fold change vs veh, ZNF638 /// ZNF638-IT1 / RFU, PANK3 / Fold change vs veh, PANK3 / RFU, SH3YL1 / Fold change vs veh, SH3YL1 / RFU, ZEB2 / Fold change vs veh, ZEB2 / RFU, NRIP1 / Fold change vs veh, NRIP1 / RFU, PTTG1IP / Fold change vs veh, PTTG1IP / RFU, CAPN2 / Fold change vs veh, CAPN2 / RFU, MED14 / Fold change vs veh, MED14 / RFU, SNORA58 / Fold change vs veh, SNORA58 / RFU, C1orf63 / Fold change vs veh, C1orf63 / RFU, LRRFIP1 / Fold change vs veh, LRRFIP1 / RFU, NDUFAF7 / Fold change vs veh, NDUFAF7 / RFU, SLC12A2 / Fold change vs veh, SLC12A2 / RFU, IBTK / Fold change vs veh, IBTK / RFU, ESF1 / Fold change vs veh, ESF1 / Fold change vs veh, TMEM50B / RFU, TAOK1 / Fold change vs veh, TAOK1 / RFU, ACBD3 / Fold change vs veh, ACBD3 / RFU, TMA16 / Fold change vs veh, TMA16 / RFU, RWDD3 / Fold change vs veh, RWDD3 / RFU, BCAT1 / Fold change vs veh, BCAT1 / RFU, EDEM3 / Fold change vs veh, EDEM3 / RFU, TMEM33 / Fold change vs veh, TMEM33 / RFU, WDR75 / Fold change vs veh, WDR75 / RFU, AHCTF1 / Fold change vs veh, AHCTF1 / RFU, TFRC / Fold change vs veh, TFRC / RFU, ZDHHC17 / Fold change vs veh, ZDHHC17 / RFU, NOM1 / Fold change vs veh, NOM1 / RFU, ARL8B / Fold change vs veh, ARL8B / RFU, ZBTB11 / Fold change vs veh, ZBTB11 / RFU, TAMM41 / Fold change vs veh, TAMM41 / RFU, KIAA1704 /// LOC100996395 / Fold change vs veh, KIAA1704 /// LOC100996395 / RFU, ING1 / Fold change vs veh, ING1 / RFU, TRMT61B / Fold change vs veh, TRMT61B / RFU, FUBP3 / Fold change vs veh, FUBP3 / RFU, TP53 / Fold change vs veh, TP53 / RFU, TNKS2 / Fold change vs veh, TNKS2 / RFU, ZFP14 / Fold change vs veh, ZFP14 / RFU, ACTR2 / Fold change vs veh, ACTR2 / RFU, PPP3R1 / Fold change vs veh, PPP3R1 / RFU, PIK3R1 / Fold change vs veh, PIK3R1 / RFU, HNRNPA1 / Fold change vs veh, HNRNPA1 / RFU, RNF170 / Fold change vs veh, RNF170 / RFU, ZNF28 / Fold change vs veh, ZNF28 / RFU, RNGTT / Fold change vs veh, RNGTT / RFU, OGT / Fold change vs veh, OGT / RFU, BRD1 / Fold change vs veh, BRD1 / RFU, MARS / Fold change vs veh, MARS / RFU, ZNF655 / Fold change vs veh, ZNF655 / RFU, FAHD1 / Fold change vs veh, FAHD1 / RFU, BDP1 / Fold change vs veh, BDP1 / RFU, LRRCC1 / Fold change vs veh, LRRCC1 / RFU, ARID1A / Fold change vs veh, ARID1A / RFU, ZNF146 / Fold change vs veh, ZNF146 / RFU, ZNF330 / Fold change vs veh, ZNF330 / RFU, GPN3 / Fold change vs veh, GPN3 / RFU, C9orf123 / Fold change vs veh, C9orf123 / RFU, N4BP2L2 / Fold change vs veh, N4BP2L2 / RFU, ARFIP1 / Fold change vs veh, ARFIP1 / RFU, FAM179B / Fold change vs veh, FAM179B / RFU, BCL10 / Fold change vs veh, BCL10 / RFU, UHRF1BP1L / Fold change vs veh, UHRF1BP1L / RFU, BET1 / Fold change vs veh, BET1 / RFU, CNOT2 / Fold change vs veh, CNOT2 / RFU, ZNF268 / Fold change vs veh, ZNF268 / Fold change vs veh, ZNF507 / RFU, DGCR2 / Fold change vs veh, DGCR2 / RFU, WDSUB1 / Fold change vs veh, WDSUB1 / Fold change vs veh, HSP90B1 /// MIR3652 / RFU, ADSS / Fold change vs veh, ADSS / RFU, GK / Fold change vs veh, GK / RFU, ZNF148 / Fold change vs veh, ZNF148 / RFU, TAF9 / Fold change vs veh, TAF9 / RFU, SLC1A5 / Fold change vs veh, SLC1A5 / RFU, SLMO2 / Fold change vs veh, SLMO2 / RFU, ABCC4 / Fold change vs veh, ABCC4 / RFU, LOC101060439 /// RAP1B / Fold change vs veh, LOC101060439 /// RAP1B / RFU, RFX7 / Fold change vs veh, RFX7 / RFU, GTPBP10 / Fold change vs veh, GTPBP10 / RFU, CNEP1R1 / Fold change vs veh, CNEP1R1 / RFU, BIVM-ERCC5 /// ERCC5 / Fold change vs veh, BIVM-ERCC5 /// ERCC5 / RFU, ILF3 / Fold change vs veh, ILF3 / RFU 11762660_at / Fold change /veh 11762660_at / RFU VCAN (11757783_s_at) / Fold change /veh VCAN (11757783_s_at) / RFU DDX43 (11728927_at) / Fold change /veh DDX43 (11728927_at) / RFU KRT8 (11758188_x_at) / Fold change /veh KRT8 (11758188_x_at) / RFU NKD1 (11759106_at) / Fold change /veh NKD1 (11759106_at) / RFU SRD5A1 (11742802_a_at) / Fold change /veh SRD5A1 (11742802_a_at) / RFU TPSAB1 /// TPSB2 (11721975_s_at) / Fold change /veh TPSAB1 /// TPSB2 (11721975_s_at) / RFU GSTM3 (11746129_a_at) / Fold change /veh GSTM3 (11746129_a_at) / RFU IL23R (11737362_x_at) / Fold change /veh IL23R (11737362_x_at) / RFU TMEM51 (11727254_a_at) / Fold change /veh TMEM51 (11727254_a_at) / RFU PIWIL2 (11732686_x_at) / Fold change /veh PIWIL2 (11732686_x_at) / RFU ORM1 (11744905_x_at) / Fold change /veh ORM1 (11744905_x_at) / RFU CCDC152 (11743942_at) / Fold change /veh CCDC152 (11743942_at) / RFU ECM1 (11717891_a_at) / Fold change /veh ECM1 (11717891_a_at) / RFU IL23R (11748794_a_at) / Fold change /veh IL23R (11748794_a_at) / RFU TNFAIP8L3 (11732012_x_at) / Fold change /veh TNFAIP8L3 (11732012_x_at) / RFU MBOAT4 (11741988_at) / Fold change /veh MBOAT4 (11741988_at) / RFU 11764193_at / Fold change /veh 11764193_at / RFU TMEM53 (11763286_at) / Fold change /veh TMEM53 (11763286_at) / RFU MAGEB2 (11727129_at) / Fold change /veh MAGEB2 (11727129_at) / RFU TMEM200A (11744735_a_at) / Fold change /veh TMEM200A (11744735_a_at) / RFU CCDC152 (11751479_a_at) / Fold change /veh CCDC152 (11751479_a_at) / RFU FAM211A (11726209_a_at) / Fold change /veh FAM211A (11726209_a_at) / RFU RGS16 (11746705_a_at) / Fold change /veh RGS16 (11746705_a_at) / RFU VCAN (11755009_s_at) / Fold change /veh VCAN (11755009_s_at) / RFU RHOB (11743442_s_at) / Fold change /veh RHOB (11743442_s_at) / RFU RGS16 (11720943_a_at) / Fold change /veh RGS16 (11720943_a_at) / RFU RGS16 (11720944_at) / Fold change /veh RGS16 (11720944_at) / RFU, VPS4B / Fold change vs veh, VPS4B / RFU, CREB1 / Fold change vs veh, CREB1 / RFU, DNAJC13 / Fold change vs veh, DNAJC13 / RFU, GNAQ / Fold change vs veh, GNAQ / RFU, CDK5R1 / Fold change vs veh, CDK5R1 / RFU, ZRANB3 / Fold change vs veh, ZRANB3 / RFU, CUL4A / Fold change vs veh, CUL4A / RFU, CCNY / Fold change vs veh, CCNY / RFU, UFL1 / Fold change vs veh, UFL1 / RFU, COG3 / Fold change vs veh, COG3 / RFU, DIAPH2 / Fold change vs veh, DIAPH2 / RFU, SKA2 / Fold change vs veh, SKA2 / RFU, AFF3 / Fold change vs veh, AFF3 / RFU, LMF1 / Fold change vs veh, LMF1 / RFU, IPO11 / Fold change vs veh, IPO11 / RFU, DFFB / Fold change vs veh, DFFB / RFU, FOXP1 / Fold change vs veh, FOXP1 / RFU, CARD8 / Fold change vs veh, CARD8 / RFU, STRN3 / Fold change vs veh, STRN3 / RFU, ADK / Fold change vs veh, ADK / RFU, RASSF2 / Fold change vs veh, RASSF2 / RFU, WIPF1 / Fold change vs veh, WIPF1 / RFU, LARP1B / Fold change vs veh, LARP1B / RFU, RASA1 / Fold change vs veh, RASA1 / RFU, RB1 / Fold change vs veh, RB1 / RFU, PPFIA1 / Fold change vs veh, PPFIA1 / RFU, MAT2A / Fold change vs veh, MAT2A / RFU, CCT5 / Fold change vs veh, CCT5 / RFU, WDR92 / Fold change vs veh, WDR92 / RFU, CUX1 / Fold change vs veh, CUX1 / RFU, TTC7A / Fold change vs veh, TTC7A / RFU, TMEM135 / Fold change vs veh, TMEM135 / RFU, DEPTOR / Fold change vs veh, DEPTOR / RFU, CPM / Fold change vs veh, CPM / RFU, DNAJB6 / Fold change vs veh, DNAJB6 / RFU, CACNA2D3 / Fold change vs veh, CACNA2D3 / RFU, DTX4 / Fold change vs veh, DTX4 / RFU, TFCP2 / Fold change vs veh, TFCP2 / RFU, GMCL1 /// GMCL1P1 / Fold change vs veh, GMCL1 /// GMCL1P1 / RFU, AEBP2 / Fold change vs veh, AEBP2 / RFU, SNHG1 /// SNORD22 /// SNORD25 /// SNORD26 /// SNORD27 /// SNORD28 /// SNORD29 /// SNORD31 / Fold change vs veh, SNHG1 /// SNORD22 /// SNORD25 /// SNORD26 /// SNORD27 /// SNORD28 /// SNORD29 /// SNORD31 / Fold change (Aza/veh), C12orf56 (ProbeSet 11735607_a_at) / Fold change (ACY-1035/veh), C12orf56 (ProbeSet 11735607_a_at) / Fold change (Aza/veh), FGFR1OP (ProbeSet 11751329_s_at) / Fold change (ACY-1035/veh), FGFR1OP (ProbeSet 11751329_s_at) / Fold change (Aza/veh), VPS36 (ProbeSet 11739960_a_at) / Fold change (ACY-1035/veh), VPS36 (ProbeSet 11739960_a_at) / RFU SYPL1 (11715823_x_at) / Fold change /veh SYPL1 (11715823_x_at) / RFU IGFBP7 (11715501_s_at) / Fold change /veh IGFBP7 (11715501_s_at) / RFU REEP3 (11722064_at) / Fold change /veh REEP3 (11722064_at) / RFU IGLL1 (11728026_x_at) / Fold change /veh IGLL1 (11728026_x_at): dose or concentration left out as unconfirmed
# Conditions: MV-4-11 cells, 48 hours
smiles,measurement,value
Nc1ccc(-c2cccs2)cc1NC(=O)c1ccc2c(c1)cc(C1CC1)n2CCN1CCOCC1 [ACY-1035],Fold change /veh C5orf56 (11738088_a_at),0.99
